In US20080139558A1, “QUINOLONES USEFUL AS INDUCIBLE NITRIC OXIDE SYNTHASE INHIBITORS” (KALYPSYS, INC., priority 2006, published 2008):

Biological target: T1, human iNOS (Homo sapiens, UniProt P35228)
T1 construct: expressed in transfected cells; host or cells: HEK293
Experiment: DAN assay of nitric oxide production (hiNOS)
Assay type: cell-based
Settings: enzyme expressed in HEK293 cells transiently transfected with human iNOS
From the text: The source of nitric oxide synthase (NOS) enzyme can be generated in several ways including induction of endogenous iNOS using cytokines and/or lipopolysaccharide (LPS) in various cell types known in the art. Alternatively, the gene encoding the enzyme can be cloned and the enzyme can be generated in cells via heterologous expression from a transient or stable expression plasmid with suitable features for protein expression as are known in the art. Enzymatic activity (nitric oxide production) is calcium independent for iNOS, while the constitutive NOS isoforms, nNOS and eNOS, become active with the addition of various cofactors added to cellular media or extract as are well known in the art. Enzymes specified in Table 1 were expressed in HEK293 cells transiently transfected with human iNOS.
A major metabolic pathway for nitric oxide is to nitrate and nitrite, which are stable metabolites within tissue culture, tissue, plasma, and urine (S Moncada, A Higgs, N Eng J Med 329, 2002 (1993)).
The level of nitrate or nitrite in the specimen can be quantified by any method known in the art which provides adequate sensitivity and reproducibility. A variety of protocols have also been described for detecting and quantifying nitrite and nitrate levels in biological fluids by ion chromatography (e.g., A Everett et al., J. Chromatogr. 706, 437 (1995); J M Monaghan et al., J. Chromatogr. 770, 143 (1997)), high-performance liquid chromatography (e.g., M Kelm et al., Cardiovasc. Res. 41, 765 (1999)), and capillary electrophoresis (MA Friedberg et al., J. Chromatogr. 781, 491 (1997)). For example, 2,3-diaminonaphthalene reacts with the nitrosonium cation that forms spontaneously from NO to form the fluorescent product 1H-naphthotriazole. Using 2,3-diaminonaphthalene (“DAN”), researchers have developed a rapid, quantitative fluorometric assay that can detect from 10 nM to 10 μM nitrite and is compatible with a multi-well microplate format. […] DAN reacts with nitrite ion and gives fluorescent naphthotriazole (MC Carré et al., Analusis 27, 835-838 (1999)). Table 1 provides the test results of various compounds of the subject invention using the DAN assay.
A specimen can be processed prior to determination of nitrate or nitrite as required by the quantification method, or in order to improve the results, or for the convenience of the investigator. For example, processing can involve centrifuging, filtering, or homogenizing the sample. If the sample is whole blood, the blood can be centrifuged to remove cells and the nitrate or nitrite assay performed on the plasma or serum fraction. If the sample is tissue, the tissue can be dispersed or homogenized by any method known in the art prior to determination of nitrate or nitrite. It may be preferable to remove cells and other debris by centrifugation or another method and to determine the nitrate or nitrite level using only the fluid portion of the sample, or the extracellular fluid fraction of the sample. The sample can also be preserved for later determination, for example by freezing of urine or plasma samples. When appropriate, additives may be introduced into the specimen to preserve or improve its characteristics for use in the nitrate or nitrite assay.
The “level” of nitrate, nitrite, or other NO-related product usually refers to the concentration (in moles per liter, micromoles per liter, or other suitable units) of nitrate or nitrite in the specimen, or in the fluid portion of the specimen. However, other units of measure can also be used to express the level of nitrate or nitrite. For example, an absolute amount (in micrograms, milligrams, nanomoles, moles, or other suitable units) can be used, particularly if the amount refers back to a constant amount (e.g., grams, kilograms, milliliters, liters, or other suitable units) of the specimens under consideration. A number of commercially available kits can be used. […]

T1 sequence (P35228 whole entry): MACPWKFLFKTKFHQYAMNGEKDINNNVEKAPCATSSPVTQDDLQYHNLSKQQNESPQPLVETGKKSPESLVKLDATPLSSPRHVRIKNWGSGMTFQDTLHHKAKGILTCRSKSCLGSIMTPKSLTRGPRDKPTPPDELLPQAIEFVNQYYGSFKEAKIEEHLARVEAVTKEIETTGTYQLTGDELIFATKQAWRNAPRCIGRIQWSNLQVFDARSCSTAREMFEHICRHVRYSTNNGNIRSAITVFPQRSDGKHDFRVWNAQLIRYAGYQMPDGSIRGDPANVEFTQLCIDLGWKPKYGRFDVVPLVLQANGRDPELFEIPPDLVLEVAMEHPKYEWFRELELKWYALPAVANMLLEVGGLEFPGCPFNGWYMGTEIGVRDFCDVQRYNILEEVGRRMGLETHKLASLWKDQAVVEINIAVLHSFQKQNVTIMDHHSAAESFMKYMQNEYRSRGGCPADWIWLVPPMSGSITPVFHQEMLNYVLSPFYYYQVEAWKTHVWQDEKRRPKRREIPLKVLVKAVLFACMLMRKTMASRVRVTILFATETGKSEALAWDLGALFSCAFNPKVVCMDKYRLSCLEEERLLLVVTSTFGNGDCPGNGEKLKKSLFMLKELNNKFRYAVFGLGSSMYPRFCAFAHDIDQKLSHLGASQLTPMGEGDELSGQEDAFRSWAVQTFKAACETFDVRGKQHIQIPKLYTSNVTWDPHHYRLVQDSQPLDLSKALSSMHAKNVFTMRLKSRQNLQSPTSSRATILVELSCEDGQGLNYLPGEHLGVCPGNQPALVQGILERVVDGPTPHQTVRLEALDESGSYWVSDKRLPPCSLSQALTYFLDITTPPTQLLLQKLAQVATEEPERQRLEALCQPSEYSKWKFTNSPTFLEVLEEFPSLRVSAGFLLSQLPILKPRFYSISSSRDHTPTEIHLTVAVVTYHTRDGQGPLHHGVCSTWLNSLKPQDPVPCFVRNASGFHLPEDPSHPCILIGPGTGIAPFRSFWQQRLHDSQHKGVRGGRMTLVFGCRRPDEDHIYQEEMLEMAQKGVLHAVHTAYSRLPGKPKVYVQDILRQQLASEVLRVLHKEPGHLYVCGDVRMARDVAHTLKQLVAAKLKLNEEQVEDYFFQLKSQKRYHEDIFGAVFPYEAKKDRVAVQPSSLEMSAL

EC50	SMILES
> 5 µM	O=C(c1cnccn1)N(Cc1cc(=O)[nH]c2c(F)cccc12)c1cccc(Cl)c1 [Example 70, N-(3-Chlorophenyl)-N-((8-fluoro-2-oxo-1,2-dihydroquinolin-4-yl)methyl)pyrazine-2-carboxamide]
> 5 µM	Cc1ncccc1C(=O)N(Cc1cc(=O)[nH]c2c(F)cccc12)c1cccc(Cl)c1 [Example 71, N-(3-Chlorophenyl)-N-((8-fluoro-2-oxo-1,2-dihydroquinolin-4-yl)methyl)-2-methylnicotinamide]
> 5 µM	Cc1ccncc1C(=O)N(Cc1cc(=O)[nH]c2c(F)cccc12)c1cccc(Cl)c1 [Example 72, N-(3-Chlorophenyl)-N-((8-fluoro-2-oxo-1,2-dihydroquinolin-4-yl)methyl)-4-methylnicotinamide]
> 5 µM	Cc1cccnc1C(=O)N(Cc1cc(=O)[nH]c2c(F)cccc12)c1cccc(Cl)c1 [Example 73, N-(3-Chlorophenyl)-N-((8-fluoro-2-oxo-1,2-dihydroquinolin-4-yl)methyl)-3-methylpicolinamide]
> 5 µM	CN(C)c1ccccc1C(=O)N(Cc1cc(=O)[nH]c2c(F)cccc12)c1cccc(Cl)c1 [Example 74, N-(3-Chlorophenyl)-2-(dimethylamino)-N-((8-fluoro-2-oxo-1,2-dihydroquinolin-4-yl)methyl)benzamide]
> 5 µM	CN(C)c1cccc(C(=O)N(Cc2cc(=O)[nH]c3c(F)cccc23)c2cccc(Cl)c2)c1 [Example 75, N-(3-Chlorophenyl)-3-(dimethylamino)-N-((8-fluoro-2-oxo-1,2-dihydroquinolin-4-yl)methyl)benzamide]
> 5 µM	CN(C)c1ccc(C(=O)N(Cc2cc(=O)[nH]c3c(F)cccc23)c2cccc(Cl)c2)cc1 [Example 76, N-(3-Chlorophenyl)-4-(dimethylamino)-N-((8-fluoro-2-oxo-1,2-dihydroquinolin-4-yl)methyl)benzamide]
> 5 µM	O=c1cc(CN(c2cccc(Cl)c2)c2ccccn2)c2cccc(F)c2[nH]1 [Example 77, 4-(((3-Chlorophenyl)(pyridin-2-yl)amino)methyl)-8-fluoroquinolin-2(1H)-one]
> 5 µM	O=c1cc(CN(c2cccc(Cl)c2)c2nccc3ccccc23)c2cccc(F)c2[nH]1 [Example 78, 4-(((3-Chlorophenyl)(isoquinolin-1-yl)amino)methyl)-8-fluoroquinolin-2(1H)-one]
> 5 µM	Cc1ncsc1-c1nc2ccccc2n1Cc1cc(=O)[nH]c2c(F)cccc12 [Example 79, 8-Fluoro-4-((2-(4-methylthiazol-5-yl)-1H-benzo[d]imidazol-1-yl)methyl)quinolin-2(1H)-one]
> 5 µM	CC(C)C(=O)N(Cc1cc(=O)[nH]c2c(F)cccc12)c1cccc(Cl)c1 [Example 80, N-(3-Chlorophenyl)-N-((8-fluoro-2-oxo-1,2-dihydroquinolin-4-yl)methyl)isobutyramide]
> 5 µM	O=C(C1CC1)N(Cc1cc(=O)[nH]c2c(F)cccc12)c1cccc(Cl)c1 [Example 81, N-(3-Chlorophenyl)-N-((8-fluoro-2-oxo-1,2-dihydroquinolin-4-yl)methyl)cyclopropanecarboxamide]
> 5 µM	O=C(c1cccc2ccccc12)N(Cc1cc(=O)[nH]c2c(F)cccc12)c1cccc(Cl)c1 [Example 82, N-(3-Chlorophenyl)-N-((8-fluoro-2-oxo-1,2-dihydroquinolin-4-yl)methyl)-1-naphthamide]
> 5 µM	O=C(c1ccc2ccccc2c1)N(Cc1cc(=O)[nH]c2c(F)cccc12)c1cccc(Cl)c1 [Example 83, N-(3-Chlorophenyl)-N-((8-fluoro-2-oxo-1,2-dihydroquinolin-4-yl)methyl)-2-naphthamide]
> 5 µM	O=C(c1ccc2ncccc2c1)N(Cc1cc(=O)[nH]c2c(F)cccc12)c1cccc(Cl)c1 [Example 84, N-(3-Chlorophenyl)-N-((8-fluoro-2-oxo-1,2-dihydroquinolin-4-yl)methyl)quinoline-6-carboxamide]
≤ 5 µM	Cc1ncsc1C(=O)N(Cc1cc(=O)[nH]c2c(F)cccc12)c1ccc(F)c(Cl)c1 [Example 85, N-(3-Chloro-4-fluorophenyl)-N-((8-fluoro-2-oxo-1,2-dihydroquinolin-4-yl)methyl)-4-methylthiazole-5-carboxamide]

The remaining lines, values behind:

SMILES	EC50
Cc1cccc(C(=O)N(Cc2cc(=O)[nH]c3c(F)cccc23)c2cccc(Cl)c2)c1 [Example 58, N-(3-Chlorophenyl)-N-((8-fluoro-2-oxo-1,2-dihydroquinolin-4-yl)methyl)-3-methylbenzamide]	> 5 µM
Cc1ccc(C(=O)N(Cc2cc(=O)[nH]c3c(F)cccc23)c2cccc(Cl)c2)cc1 [Example 59, N-(3-Chlorophenyl)-N-((8-fluoro-2-oxo-1,2-dihydroquinolin-4-yl)methyl)-4-methylbenzamide]	> 5 µM
COc1ccccc1C(=O)N(Cc1cc(=O)[nH]c2c(F)cccc12)c1cccc(Cl)c1 [Example 60, N-(3-Chlorophenyl)-N-((8-fluoro-2-oxo-1,2-dihydroquinolin-4-yl)methyl)-2-methoxybenzamide]	> 5 µM
COc1cccc(C(=O)N(Cc2cc(=O)[nH]c3c(F)cccc23)c2cccc(Cl)c2)c1 [Example 61, N-(3-Chlorophenyl)-N-((8-fluoro-2-oxo-1,2-dihydroquinolin-4-yl)methyl)-3-methoxybenzamide]	> 5 µM
COc1ccc(C(=O)N(Cc2cc(=O)[nH]c3c(F)cccc23)c2cccc(Cl)c2)cc1 [Example 62, N-(3-Chlorophenyl)-N-((8-fluoro-2-oxo-1,2-dihydroquinolin-4-yl)methyl)-4-methoxybenzamide]	> 5 µM
COC(=O)C(=O)N(Cc1cc(=O)[nH]c2c(F)cccc12)c1cccc(Cl)c1 [Example 63, Methyl 2-((3-chlorophenyl)((8-fluoro-2-oxo-1,2-dihydroquinolin-4-yl)methyl)amino)-2-oxoacetate]	> 5 µM
N#Cc1ccccc1C(=O)N(Cc1cc(=O)[nH]c2c(F)cccc12)c1cccc(Cl)c1 [Example 64, N-(3-Chlorophenyl)-2-cyano-N-((8-fluoro-2-oxo-1,2-dihydroquinolin-4-yl)methyl)benzamide]	> 5 µM
N#Cc1cccc(C(=O)N(Cc2cc(=O)[nH]c3c(F)cccc23)c2cccc(Cl)c2)c1 [Example 65, N-(3-Chlorophenyl)-3-cyano-N-((8-fluoro-2-oxo-1,2-dihydroquinolin-4-yl)methyl)benzamide]	> 5 µM
N#Cc1ccc(C(=O)N(Cc2cc(=O)[nH]c3c(F)cccc23)c2cccc(Cl)c2)cc1 [Example 66, N-(3-Chlorophenyl)-4-cyano-N-((8-fluoro-2-oxo-1,2-dihydroquinolin-4-yl)methyl)benzamide]	> 5 µM
O=C(c1ccccn1)N(Cc1cc(=O)[nH]c2c(F)cccc12)c1cccc(Cl)c1 [Example 67, N-(3-Chlorophenyl)-N-((8-fluoro-2-oxo-1,2-dihydroquinolin-4-yl)methyl)picolinamide]	> 5 µM
O=C(c1cccnc1)N(Cc1cc(=O)[nH]c2c(F)cccc12)c1cccc(Cl)c1 [Example 68, N-(3-Chlorophenyl)-N-((8-fluoro-2-oxo-1,2-dihydroquinolin-4-yl)methyl)nicotinamide]	> 5 µM
O=C(c1ccncc1)N(Cc1cc(=O)[nH]c2c(F)cccc12)c1cccc(Cl)c1 [Example 69, N-(3-Chlorophenyl)-N-((8-fluoro-2-oxo-1,2-dihydroquinolin-4-yl)methyl)isonicotinamide]	> 5 µM
